Results taken from PubChem BioAssay (NCI).
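Grown in 96-well plates, cells were treated for 48 hours with each compound at five concentrations. Insufficient inhibition: endpoint recorded as highest concentration tested. At the GI50, growth is halved. The concentration for full growth arrest is given as TGI.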

How the values were obtained:
Assay in all cases: NCI tumour cell line growth inhibition, 48 h
HCT-116 colon = tested on: HCT-116 colon
OVCAR-3 ovarian = tested on: OVCAR-3 ovarian
A498 renal = tested on: A498 renal
ACHN renal = tested on: ACHN renal
MDA-MB-231 breast = tested on: MDA-MB-231 breast
HOP-92 NSCLC = tested on: HOP-92 NSCLC
SNB-75 CNS = tested on: SNB-75 CNS
NCI/ADR-RES ovarian = tested on: NCI/ADR-RES ovarian
IGROV1 ovarian = tested on: IGROV1 ovarian
UACC-257 melanoma = tested on: UACC-257 melanoma
UACC-62 melanoma = tested on: UACC-62 melanoma
EKVX NSCLC = tested on: EKVX NSCLC
SR leukemia = tested on: SR leukemia
NCI-H522 lung = tested on: NCI-H522 lung
RXF 393 renal = tested on: RXF 393 renal
OVCAR-5 ovarian = tested on: OVCAR-5 ovarian
K-562 leukemia = tested on: K-562 leukemia
BT-549 breast = tested on: BT-549 breast
DU-145 prostate = tested on: DU-145 prostate
CAKI-1 renal = tested on: CAKI-1 renal
A549 NSCLC = tested on: A549 NSCLC
HS 578T breast = tested on: HS 578T breast
NCI-H460 lung = tested on: NCI-H460 lung
MOLT-4 leukemia = tested on: MOLT-4 leukemia
HCC-2998 colon = tested on: HCC-2998 colon
SNB-19 CNS = tested on: SNB-19 CNS
COLO 205 colon = tested on: COLO 205 colon
SK-MEL-5 melanoma = tested on: SK-MEL-5 melanoma
KM12 colon = tested on: KM12 colon

CCCCCN(CCCCC)CC(O)c1cc(C)c2ccc3cc(C(C)C)ccc3c2c1 (configuration not stated)
TGI (HCT-116 colon): 3320 nM | GI50 (OVCAR-3 ovarian): 1920 nM | TGI (OVCAR-3 ovarian): 3410 nM | GI50 (A498 renal): 1560 nM | TGI (A498 renal): 2940 nM | GI50 (ACHN renal): 1600 nM | TGI (ACHN renal): 3050 nM | GI50 (MDA-MB-231 breast): 1790 nM | TGI (MDA-MB-231 breast): 3770 nM | GI50 (HOP-92 NSCLC): 1400 nM | TGI (HOP-92 NSCLC): 2850 nM | GI50 (SNB-75 CNS): 1310 nM | TGI (SNB-75 CNS): 2650 nM | GI50 (NCI/ADR-RES ovarian): 2160 nM | TGI (NCI/ADR-RES ovarian): 4610 nM | GI50 (IGROV1 ovarian): 1790 nM | TGI (IGROV1 ovarian): 3470 nM | GI50 (UACC-257 melanoma): 1990 nM | TGI (UACC-257 melanoma): 3970 nM | GI50 (UACC-62 melanoma): 1710 nM | TGI (UACC-62 melanoma): 3470 nM | GI50 (EKVX NSCLC): 1760 nM | TGI (EKVX NSCLC): 3340 nM | GI50 (SR leukemia): 836 nM | TGI (SR leukemia): 3170 nM | GI50 (NCI-H522 lung): 1810 nM | TGI (NCI-H522 lung): 3850 nM | GI50 (RXF 393 renal): 1570 nM | TGI (RXF 393 renal): 3100 nM | GI50 (OVCAR-5 ovarian): 1800 nM | TGI (OVCAR-5 ovarian): 3660 nM | GI50 (K-562 leukemia): 2170 nM | TGI (K-562 leukemia): 4460 nM | GI50 (BT-549 breast): 1850 nM | TGI (BT-549 breast): 3510 nM | GI50 (DU-145 prostate): 1890 nM | TGI (DU-145 prostate): 3370 nM | GI50 (CAKI-1 renal): 1400 nM | TGI (CAKI-1 renal): 2810 nM | GI50 (A549 NSCLC): 2610 nM | TGI (A549 NSCLC): 5580 nM | GI50 (HS 578T breast): 1930 nM | TGI (HS 578T breast): 4650 nM | GI50 (NCI-H460 lung): 1970 nM | TGI (NCI-H460 lung): 4050 nM | GI50 (MOLT-4 leukemia): 2210 nM | TGI (MOLT-4 leukemia): 4720 nM | GI50 (HCC-2998 colon): 1850 nM | TGI (HCC-2998 colon): 3400 nM | GI50 (SNB-19 CNS): 1880 nM | TGI (SNB-19 CNS): 3730 nM | GI50 (COLO 205 colon): 2080 nM | TGI (COLO 205 colon): 4220 nM | GI50 (SK-MEL-5 melanoma): 1830 nM | TGI (SK-MEL-5 melanoma): 3620 nM | GI50 (KM12 colon): 1800 nM | TGI (KM12 colon): 3360 nM
